This is an account of results in PubChem BioAssay (NCI).

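Protocol summary: plate cells (96-well), add compound at 5 concentrations, incubate 48 h, interpolate endpoints linearly. At the TGI there is no net growth.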

A word on the TGI: it is the concentration at which net growth stops. Read a low TGI as greater sensitivity of the cells.

Test in all cases: DTP human tumour cell line panel, 48 h
In assay [1] the test system is RXF 393 renal.
The test system of assay [2] is MALME-3M melanoma.
The test system of assay [3] is SF-295 CNS.
For assay [4], the system named is M14 melanoma.
The test system of assay [5] is HS 578T breast.
For assay [6], the system named is HCT-15 colon.
In assay [7] the test system is SNB-75 CNS.
Assay [8] has as its system UACC-62 melanoma.
Assay [9] concerns HCT-116 colon.
For assay [10], the system named is SK-MEL-2 melanoma.
For assay [11], the system named is NCI-H23 lung.
Assay [12] deals with BT-549 breast.
For assay [13], the system named is A549 NSCLC.
The test system of assay [14] is SNB-19 CNS.
In assay [15] the test system is OVCAR-8 ovarian.
For assay [16], the system named is HCC-2998 colon.
Assay [17] relates to UO-31 renal.
Assay [18] concerns 786-0 renal.
In assay [19] the test system is SK-OV-3 ovarian.
Assay [20] has as its system T-47D breast.

In the case of `CC(=O)Nc1nc(C)c(S(=O)(=O)NC(=O)NC2NC(=O)NC2=O)s1` (stereo not given), the TGI in assay [1], in assay [2], in assay [3], in assay [4], in assay [5] and in assay [6] was above 100 µM throughout. Besides, the TGI in assay [7], in [8], in assay [9], in [10], in assay [11] and in assay [12] was above 100 µM throughout. In addition, the concentration for total growth inhibition (TGI) in assay [13], in assay [14], in assay [15], in [16], in [17] and in [18] was above 100 µM each time. Also, the TGI in [19] and in assay [20] was above 100 µM each time.

Turning to `Cc1cc(N(CCC#N)CCC#N)ccc1/C(N=Nc1ccc([N+](=O)[O-])cc1)=N\NC(=O)c1cc(Cl)ccc1O`, the TGI is above 100 µM in assay [1]; above 100 µM in assay [2]; above 100 µM in assay [3]; above 100 µM in [4]; 91.7 µM in [5]; above 100 µM in [6]. Besides, the concentration for total growth inhibition (TGI) in [7] is above 100 µM; in assay [8], 67.6 µM; in assay [9] it was 88.1 µM; in assay [10] it was above 100 µM; in assay [11], 39.1 µM; in [12], above 100 µM. The TGI in [13] was above 100 µM; in assay [14], above 100 µM; in assay [15], 63 µM; in [16] it was 46.2 µM; in [17], 56.8 µM; in assay [18], above 100 µM. Moreover, the concentration for total growth inhibition (TGI) is above 100 µM in [19] and 97.9 µM in assay [20].

With `COC1OC2COC1(OCc1ccccc1)C1OC(C)(C)OC21` (stereo not given), the TGI in assay [1], in assay [2], in assay [3], in assay [4], in [5] and in assay [6] was above 100 µM in each case. Moreover, the TGI in [7], in [8], in assay [9], in assay [10], in assay [11] and in assay [12] was above 100 µM each time. The TGI in [13], in assay [14], in assay [15], in assay [16], in [17] and in [18] was above 100 µM throughout. Also, the TGI in [19] and in [20] was above 100 µM each time.

For the compound `CCOC(=O)c1c(O)cn2c1[nH]c1cccc3cccc2c31`, the TGI in assay [1], in assay [2], in [3], in [4], in [5] and in [6] was above 100 µM throughout. The concentration for total growth inhibition (TGI) in assay [7], in assay [8], in [9], in assay [10], in assay [11] and in [12] was above 100 µM in each case. Further, the concentration for total growth inhibition (TGI) in assay [13], in assay [14], in assay [15], in assay [16], in assay [17] and in assay [18] was above 100 µM in each case. Besides, the TGI in assay [19] and in [20] was above 100 µM each time.

Consider `CN(C)Cc1cc(Cl)c(O)c(CN(C)C)c1`, for which the TGI in assay [1], in assay [2], in assay [3], in [4], in assay [5] and in assay [6] was above 100 µM in each case. Moreover, the total growth inhibition concentration (TGI) in [7], in assay [8], in [9], in assay [10], in assay [11] and in assay [12] was above 100 µM each time. Moreover, the concentration for total growth inhibition (TGI) in assay [13], in assay [14], in assay [15], in assay [16], in assay [17] and in assay [18] was above 100 µM in each case. The TGI in assay [19] and in assay [20] was above 100 µM in each case.

As for `O=c1[nH]c(NCc2cccnc2)nc2nc[nH]c12`, the TGI in [1], in [2], in assay [3], in assay [4], in [5] and in assay [6] was above 100 µM throughout. The TGI in [7], in assay [8], in assay [9], in [10], in assay [11] and in assay [12] was above 100 µM in each case. Further, the TGI in [13], in assay [14], in assay [15], in assay [16], in assay [17] and in assay [18] was above 100 µM in each case. Also, the TGI in assay [19] and in assay [20] was above 100 µM each time.
